This note sets out measurements from patent US10251874B2, “Crystalline forms of a JAK inhibitor compound” (THERAVANCE BIOPHARMA R&D IP, LLC, priority 2017, dated 2019).

As usually defined, the inhibition is the percentage by which the read-out fell short of the control.

The subject of experiment [1] is IL-27 induced CXCL9 secretion in EpiAirway tissue cultures. Description: Assay 15: IL-27 induced CXCL9 in human 3D airway cultures. Format: cell-based. As to conditions: 192 h, Day 8, average from 3 or 4 donors, read-out: % inhibition of IL-27 induced CXCL9 secretion (±STDV). As for the experimental part:
EpiAirway tissue cultures were obtained from Mattek (AIR-100). Cultures were derived from asthmatic donors. In a cell culture insert, human derived tracheal/bronchial epithelial cells were grown and differentiated on a porous membrane support, allowing an air-liquid interface with warmed culture medium below the cells and a gaseous test atmosphere above. Tissues were cultured in maintenance media (Mattek, AIR-100-MM) in a 37° C., 5% CO2 humidified incubator. Four donors were tested. On Day 0, tissue cultures were treated with test compounds at 10 μM, 1 μM and/or 0.1 μM. Compounds were diluted in dimethyl sulfoxide (DMSO, Sigma) to a final concentration of 0.1%. DMSO at 0.1% was used as a vehicle control. Test compounds were incubated with cultures for 1 hour at 37° C., 5% CO2, followed by the addition of pre-warmed media containing IFNγ (R&D Systems) or IL-27 (R&D Systems) at a final concentration at 100 ng/ml. Tissue cultures were maintained for 8 days. Media was replaced every 2 days with fresh media containing compounds and IFNγ or IL-27. On Day 8, tissue cultures and supernatants were collected for analysis. Supernatant samples were assayed for CXCL10 (IP-10) and CXCL9 (MIG) using luminex analysis (EMD Millipore). Data is expressed as % Inhibition +/−standard deviation (±STDV). Percent inhibition was determined by compound inhibitory potency against IFNγ or IL-27 induced CXCL10 or CXCL9 secretion compared to vehicle treated cells. Data is the average from 3 or 4 donors. Compound 1 was able to inhibit IFNγ induced CXCL10 secretion by 99%±2.0 (at 10 μM), 71%±19 (at […]) and 17%±12 (at 0.1 μM) when compared to vehicle control. Compound 1 was able to inhibit IFNγ induced CXCL9 secretion by 100%±0.3 (at 10 μM), 99%±0.9 (at 1 μM) and 74%±17 (at 0.1 μM) when compared to vehicle. […] Compound 1 was able to inhibit IL-27 induced CXCL9 secretion by 100%±0 (at 10 μM), 95%±3.7 (at 1 μM) and 75%±3.5 (at 0.1 μM) when compared to vehicle control.

The target of the next experiment is T1, Tyk2 (Homo sapiens, UniProt P29597).
T1 construct: GST; purchased Life Technologies
Description: Assay 1: LanthaScreen biochemical JAK kinase assay, Tyk2. Particulars: converted from pIC50 by Cheng-Prusoff; ATP at Km 10 μM; read-out: Tyk2 pKi (converted). As for the experimental part:
A panel of four LanthaScreen JAK biochemical assays (JAK1, 2, 3 and Tyk2) were carried in a common kinase reaction buffer (50 mM HEPES, pH 7.5, 0.01% Brij-35, 10 mM MgCl2, and 1 mM EGTA). Recombinant GST-tagged JAK enzymes and a GFP-tagged STAT1 peptide substrate were obtained from Life Technologies.
The serially diluted compound was pre-incubated with each of the four JAK enzymes and the substrate in white 384-well microplates (Corning) at ambient temperature for lh. ATP was subsequently added to initiate the kinase reactions in 10 μL total volume, with 1% DMSO. […] The plates were allowed to incubate at ambient temperature for lh before being read on the EnVision reader (Perkin Elmer). Emission ratio signals (520 nm/495 nm) were recorded and utilized to calculate the percent inhibition values based on DMSO and background controls.
For dose-response analysis, percent inhibition data were plotted vs. compound concentrations, and IC50 values were determined from a 4-parameter robust fit model with the Prism software (GraphPad Software). Results were expressed as pIC50 (negative logarithm of IC50) and subsequently converted to pK1 (negative logarithm of dissociation constant, Ki) using the Cheng-Prusoff equation.
(TR-FRET usually uses a lanthanide donor and a delayed reading to cut background.)

T1 sequence (P29597 whole entry): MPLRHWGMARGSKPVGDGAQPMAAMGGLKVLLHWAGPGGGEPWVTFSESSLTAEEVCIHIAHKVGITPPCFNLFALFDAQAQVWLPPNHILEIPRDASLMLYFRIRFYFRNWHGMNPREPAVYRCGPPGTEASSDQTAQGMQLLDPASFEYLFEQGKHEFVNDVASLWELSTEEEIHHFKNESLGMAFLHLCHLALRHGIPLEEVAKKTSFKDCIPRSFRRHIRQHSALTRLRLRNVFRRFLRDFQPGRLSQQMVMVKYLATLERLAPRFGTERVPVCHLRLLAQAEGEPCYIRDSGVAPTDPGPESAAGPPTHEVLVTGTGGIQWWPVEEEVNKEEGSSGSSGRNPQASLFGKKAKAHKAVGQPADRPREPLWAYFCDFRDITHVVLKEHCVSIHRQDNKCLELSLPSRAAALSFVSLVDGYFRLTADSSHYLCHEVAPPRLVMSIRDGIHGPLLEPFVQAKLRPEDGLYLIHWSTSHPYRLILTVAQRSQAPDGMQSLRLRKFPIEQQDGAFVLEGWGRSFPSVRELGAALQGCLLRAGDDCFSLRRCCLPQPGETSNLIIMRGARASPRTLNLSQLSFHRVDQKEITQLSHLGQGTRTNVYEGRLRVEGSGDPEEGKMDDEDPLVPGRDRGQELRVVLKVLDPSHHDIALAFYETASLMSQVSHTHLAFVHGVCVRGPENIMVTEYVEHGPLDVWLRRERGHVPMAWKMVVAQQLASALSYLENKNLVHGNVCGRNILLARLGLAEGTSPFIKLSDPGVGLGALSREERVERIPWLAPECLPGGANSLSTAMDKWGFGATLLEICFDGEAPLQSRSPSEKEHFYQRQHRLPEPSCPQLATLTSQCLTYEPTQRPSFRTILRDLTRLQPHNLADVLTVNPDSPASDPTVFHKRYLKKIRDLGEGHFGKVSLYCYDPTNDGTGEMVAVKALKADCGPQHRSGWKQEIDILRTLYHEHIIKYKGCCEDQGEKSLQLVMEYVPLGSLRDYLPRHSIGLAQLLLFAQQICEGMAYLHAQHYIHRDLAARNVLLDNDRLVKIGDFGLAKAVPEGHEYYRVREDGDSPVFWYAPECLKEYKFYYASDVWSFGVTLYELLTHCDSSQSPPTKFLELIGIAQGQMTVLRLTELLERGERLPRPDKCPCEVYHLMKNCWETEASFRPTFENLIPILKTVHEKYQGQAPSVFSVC

For the compound `CCc1cc(O)c(F)cc1-c1ccc2c(-c3nc4c([nH]3)CCN(C3CCN(C)CC3)C4)n[nH]c2c1` [Compound 1, 5-ethyl-2-fluoro-4-(3-(5-(1-methylpiperidin-4-yl)-4,5,6,7-tetrahydro-1H-imidazo[4,5-c]pyridin-2-yl)-1H-indazol-6-yl)phenol], the inhibition at 0.1 µM in experiment [1] (at 0.1 μM) amounted to 75%. Further, in experiment [1] (at 1 μM), the inhibition at 1 µM turned out to be 95%. The inhibition at 10 µM in experiment [1] (at 10 μM) stood at 100%. Further, the Ki on Tyk2 was 0.158 nM.
